In patent US20040254125A1, “Anthelmintic composition” (priority 2001, published 2004):

Assays:
Format in all cases: in vivo
[1] = tested on: Dipylidium caninum; assay: Oral Test in dogs naturally infected with Dipylidium caninum; conditions: single oral dose in gelatine capsule (Reference Example 1 5 mg/kg, praziquantel 1.25 mg/kg), postmortem on 10th day
Protocol: (§1) Compound (5 mg/kg) of Reference Example 1 and praziquantel (1.25 mg/kg) were encapsulated into gelatine to a predetermined amount to prepare a formulation for Oral Test. Incidentally, formulations were prepared as controls by using each of the compound of Reference Example 1 solo and fipronil solo to carry out the test.
(§2) The formulation was administered orally once to dogs (two dogs in each test location) naturally infected with Dipylidium caninum and Toxocara canis. Incidentally, the infection with Dipylidium caninum was confirmed by the excretion of proglottid of Dipylidium caninum into faeces three days before administration of drugs. The infection with Toxocara canis was confirmed by the excretion of eggs of Toxocara canis into faeces immediately before administration of drugs. On the 10th day after the administration of drugs, the dogs were subjected to postmortem to count the number of surviving Dipylidium caninum and Toxocara canis.

[2] = tested on: Toxocara canis; assay: Oral Test in dogs naturally infected with Toxocara canis; conditions: single oral dose in gelatine capsule (Reference Example 1 5 mg/kg, praziquantel 1.25 mg/kg), postmortem on 10th day
Protocol: as §1, §2

[3] = tested on: mites; assay: Spot-on Test (Extermination Test on Mites) in dogs; conditions: dogs naturally infected; spot-on to back of neck, 5 mg/kg of Reference Example 1 (10 g : 3.8 g fipronil per 100 ml); examined three days after administration
Protocol: Compound (10 g) of Reference Example 1 and fipronil (3.8 g) were mixed. This mixture was dissolved in a mixed solvent (9:1) of benzyl alcohol and propylene carbonate so as to be a total volume of 100 ml, and 0.05% of BHT was further added to prepare a formulation for the spot-on test. Further, as a control, formulations were prepared by using each of the compound of Reference Example 1 solo and fipronil solo to carry out the test.
The above-described formulation for spot-on test was dropped to the back part of the neck of each dog (two dogs in each test location) naturally infected with mites at a dose of 5 mg/kg of the compound in Reference Example 1. In each dog, infection with mites was examined three days after the dropwise administration.

Row | Compound | exterminating Dipylidium caninum (number of surviving parasites at postmortem) [1] | exterminating Toxocara canis (number of surviving parasites at postmortem) [2] | treating infection with mites [3]
1 | 13-[1-(4-methoxyacetylaminophenyl) cyclopentanecarbonyloxy]-5-hydroxy-milbemycin A4 [Reference Example 1] | ineffective | effective | ineffective
2 | N#Cc1nn(-c2c(Cl)cc(C(F)(F)F)cc2Cl)c(N)c1[S+]([O-])C(F)(F)F (stereo not drawn) [fipronil] | – | – | ineffective
3 | O=C(C1CCCCC1)N1CC(=O)N2CCc3ccccc3C2C1 (stereo not drawn) [praziquantels, praziquantel] | effective | ineffective | –
